Among the test systems are UACC-62 melanoma; MOLT-4 leukemia; 786-0 renal; RXF 393 renal; NCI-H522 lung; A498 renal; LOX IMVI melanoma; T-47D breast; ACHN renal; U251 CNS.
Assay in all cases: DTP human tumour cell line panel, 48 h

Values joined by “and” are separate entries in the source; they are usually repeats but may differ in a detail not shown here. Equal values may be shown once.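 Protocol summary: plate cells (96-well), add compound at 5 concentrations, incubate 48 h, interpolate endpoints linearly. GI50: concentration for 50% inhibition of growth. At the TGI there is no net growth.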

Data on seven compounds can be found in PubChem BioAssay (NCI).

With `CCCC(=O)Nc1cc(/C=C/C(=O)N2C[C@@H]3C[C@]34C2=CC(=O)c2[nH]cc(C)c24)n(C)c1`, the GI50 is 0.0972 µM with UACC-62 melanoma; 0.021 µM in the test with 786-0 renal; 0.111 µM in the test with RXF 393 renal; 0.0287 µM with NCI-H522 lung; 0.0112 µM in the test on LOX IMVI melanoma; 0.0359 µM in the test on U251 CNS. For the same compound, the TGI in the test with UACC-62 melanoma was 0.352 µM and 0.222 µM; with MOLT-4 leukemia it was 0.134 µM and 0.515 µM; in the test with RXF 393 renal it was 0.298 µM and 0.238 µM; in the test with NCI-H522 lung, 0.219 µM and 0.141 µM; in the test with A498 renal it was 0.689 µM and 0.478 µM; with T-47D breast, 1.08 µM. Besides, the TGI in the test on ACHN renal is 0.796 µM; in the test with U251 CNS, 3.72 µM and 13.8 µM.

As for `CCOC(=O)c1sc(NC(=O)COc2ccc(/C=C3\CCc4cc(OC)ccc4C3=O)cc2)nc1C`, the GI50 in the test on UACC-62 melanoma is 11.3 µM; in the test on MOLT-4 leukemia, 1.76 µM; in the test on 786-0 renal, 11.5 µM; with RXF 393 renal, 12 µM; in the test on NCI-H522 lung it was 4.56 µM; in the test on A498 renal, 13.2 µM. Moreover, the GI50 was 1.31 µM in the test with LOX IMVI melanoma, 9.13 µM in the test with T-47D breast, 13.8 µM in the test with ACHN renal and 8.75 µM in the test on U251 CNS. Also, the total growth inhibition concentration (TGI) was determined as 23.4 µM with UACC-62 melanoma; 15.3 µM in the test with MOLT-4 leukemia; 24.7 µM in the test with 786-0 renal; 29.3 µM in the test on RXF 393 renal; 12.1 µM in the test on NCI-H522 lung; 30.1 µM with A498 renal. Moreover, the TGI in the test with LOX IMVI melanoma came out at 18.8 µM; with T-47D breast, 30.7 µM; in the test on ACHN renal, 32.5 µM; in the test on U251 CNS, 21.8 µM.

For the compound `C/C(=N\NC(=S)N1CCCC1)c1ccccn1`, the GI50 with UACC-62 melanoma was 0.09 µM; in the test with MOLT-4 leukemia, under 0.0115 µM; in the test with 786-0 renal, 0.047 µM; in the test with RXF 393 renal it was 0.188 µM; in the test with NCI-H522 lung, 0.171 µM; with A498 renal, 0.0798 µM. Further, the GI50 in the test on LOX IMVI melanoma, in the test on T-47D breast, in the test on ACHN renal and with U251 CNS was under 0.01 µM in each case. For the same compound, the TGI turned out to be 0.534 µM with UACC-62 melanoma; 11.6 µM with MOLT-4 leukemia; 11 µM in the test with 786-0 renal; 7.14 µM in the test on RXF 393 renal; 6.09 µM in the test with NCI-H522 lung; 2.37 µM with A498 renal. The TGI amounted to 11.1 µM with LOX IMVI melanoma, 11 µM in the test with T-47D breast, 7.53 µM in the test on ACHN renal and 11.9 µM with U251 CNS.

Consider `COc1ccc2c(c1)[n+](=O)c(/C=C/C(=O)c1cc(OC)c(OC)c(OC)c1)c(C)n2[O-]`, for which the GI50 in the test on UACC-62 melanoma is 2.9 µM; in the test with MOLT-4 leukemia, 2.55 µM; with 786-0 renal it was 13.7 µM; with RXF 393 renal it was 3.98 µM; in the test with NCI-H522 lung, 1.32 µM; with A498 renal it was 20.5 µM. In addition, the GI50 with LOX IMVI melanoma was 3.95 µM; in the test with T-47D breast it was 2.56 µM; with ACHN renal it was 5.66 µM; with U251 CNS, 5.94 µM. The TGI with UACC-62 melanoma was 14.1 µM; in the test with MOLT-4 leukemia, 25.3 µM; in the test with 786-0 renal it was 50.3 µM; in the test on RXF 393 renal, over 100 µM; in the test with NCI-H522 lung, 3.45 µM; with A498 renal, 54.2 µM. Also, the TGI in the test with LOX IMVI melanoma is 28.6 µM; in the test on T-47D breast, 14.7 µM; with ACHN renal, 23.6 µM; in the test on U251 CNS, 47 µM.

Consider `COc1ccc(C(=O)c2ccccc2)c(O)c1`, for which the GI50 in the test with UACC-62 melanoma is 57.1 µM; with MOLT-4 leukemia, 70.6 µM; with 786-0 renal it was over 100 µM; in the test with RXF 393 renal, 41 µM; in the test on NCI-H522 lung, 89.9 µM; with A498 renal it was 16 µM. The GI50 in the test on LOX IMVI melanoma is 92 µM; with T-47D breast, 10.1 µM; in the test on ACHN renal, over 100 µM; in the test with U251 CNS, 66.3 µM. Further, the TGI with UACC-62 melanoma, with MOLT-4 leukemia, in the test with 786-0 renal, in the test with RXF 393 renal, in the test with NCI-H522 lung and with A498 renal was over 100 µM each time. For the same compound, the TGI with LOX IMVI melanoma, in the test with T-47D breast, in the test with ACHN renal and with U251 CNS was over 100 µM each time.

Turning to `COc1ccc(/C=C(\C#N)c2cc(OC)c(OC)c(OC)c2)cc1`, the GI50 in the test with UACC-62 melanoma was 0.0103 µM; in the test on MOLT-4 leukemia, 0.0391 µM; in the test on 786-0 renal it was 0.0309 µM; in the test with RXF 393 renal it was under 0.0141 µM; in the test on NCI-H522 lung, under 0.01 µM; in the test with A498 renal, 0.0123 µM. For the same compound, the GI50 was 0.0258 µM in the test on LOX IMVI melanoma, 0.672 µM in the test with T-47D breast, 0.0478 µM in the test with ACHN renal and 0.0359 µM with U251 CNS. Further, the TGI is over 100 µM in the test on UACC-62 melanoma; 6.85 µM in the test with MOLT-4 leukemia; 34.6 µM with 786-0 renal; over 90.7 µM in the test with RXF 393 renal; 0.0268 µM in the test with NCI-H522 lung; 1.58 µM in the test with A498 renal. Further, the TGI in the test with LOX IMVI melanoma was over 100 µM; in the test with T-47D breast, 61.8 µM; in the test with ACHN renal it was over 100 µM; in the test with U251 CNS it was over 100 µM.

Regarding `COc1ccc(N=c2nc3sc4cc(Cl)ccc4n3c(N)c2C#N)cc1`, the GI50 with UACC-62 melanoma is 3.35 µM; in the test with MOLT-4 leukemia, 7.74 µM; in the test with 786-0 renal, 2.43 µM; with RXF 393 renal, 5.27 µM; in the test on NCI-H522 lung, 20.6 µM; in the test on A498 renal, 2.64 µM. Besides, the GI50 in the test on LOX IMVI melanoma was 2.06 µM; in the test on T-47D breast, 39.1 µM; in the test with ACHN renal, 8.66 µM; in the test on U251 CNS it was 4.38 µM. Also, the TGI was over 38.5 µM in the test with UACC-62 melanoma; over 76.5 µM in the test on MOLT-4 leukemia; 5.47 µM with 786-0 renal; over 100 µM in the test with RXF 393 renal; over 100 µM with NCI-H522 lung; 7.05 µM with A498 renal. Moreover, the TGI is 5.07 µM with LOX IMVI melanoma, over 100 µM in the test with T-47D breast, over 100 µM in the test with ACHN renal and over 100 µM with U251 CNS.
